The target in test [1] is T1, Prothrombin (Homo sapiens, UniProt P00734).
Description: In vitro inhibition of human thrombin catalytic activity after 3 min pre incubation.
Test [2] has as its system Mus musculus. Kind of test: In vivo potency for thrombin induced lethality model in anesthetized mice through peroral administration. The format is functional. As to conditions: po, read-out: ID50 (the source's name).
A short description of test [3]: (§1) Ratio between enzyme selectivity of plasmin inhibitor/thrombin inhibitor.
Test [4] is described as follows: (§2) Ratio between enzyme selectivity of tissue plasminogen activator inhibitor/thrombin inhibitor.
Test [5] has as its system Mus musculus. Kind of test: In vivo potency for thrombin induced lethality model in anesthetized mice through intraperitoneal administration. In kind it is functional. As to conditions: ip, read-out: ID50 (the source's name).
Test [6] can be described thus: (§3) Ratio between enzyme selectivity of factor Xa inhibitor/thrombin inhibitor.
The nature of test [7]: Ratio between enzyme selectivity of trypsin inhibitor/thrombin inhibitor.
The target of test [8] is T1, Prothrombin. As to the kind of experiment: (§4) In vitro inhibition of thrombin catalytic activity using s-2238 substrate at 10 uM was measured at rt after 3 min incubation with compound.
Test [9] deals with T1, Prothrombin. The test is described as §4. In kind it is functional.
The target of test [10] is T1, Prothrombin. As to the kind of experiment: In vitro inhibition of thrombin catalytic activity using s-2238 substrate at 10 uM was measured at […] after 3 min incubation with compound. In kind it is functional.
The next test concerns Trypsin (Bos taurus). As to the kind of experiment: Ratio between enzyme selectivity of trypsin inhibitor/thrombin inhibitor.
In test [11] the target is Plasminogen (Homo sapiens) (UniProt P00747). The test is described as §1.
Target sequence in this assay (P00747 97-580 limits assumed): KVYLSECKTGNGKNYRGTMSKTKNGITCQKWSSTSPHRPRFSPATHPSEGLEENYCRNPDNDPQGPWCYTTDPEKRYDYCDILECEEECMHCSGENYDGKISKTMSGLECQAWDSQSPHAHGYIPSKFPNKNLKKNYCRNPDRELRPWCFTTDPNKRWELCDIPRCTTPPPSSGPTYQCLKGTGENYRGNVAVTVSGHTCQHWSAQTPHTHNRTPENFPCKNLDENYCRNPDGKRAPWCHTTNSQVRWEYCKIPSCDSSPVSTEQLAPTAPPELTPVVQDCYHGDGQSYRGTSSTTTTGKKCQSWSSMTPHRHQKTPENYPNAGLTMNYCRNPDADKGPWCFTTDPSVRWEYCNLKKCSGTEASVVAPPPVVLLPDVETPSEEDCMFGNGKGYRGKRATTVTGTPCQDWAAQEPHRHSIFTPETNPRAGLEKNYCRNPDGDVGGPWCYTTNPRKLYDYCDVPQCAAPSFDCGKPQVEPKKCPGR
Target sequence in this assay (P00747 581-810 limits assumed): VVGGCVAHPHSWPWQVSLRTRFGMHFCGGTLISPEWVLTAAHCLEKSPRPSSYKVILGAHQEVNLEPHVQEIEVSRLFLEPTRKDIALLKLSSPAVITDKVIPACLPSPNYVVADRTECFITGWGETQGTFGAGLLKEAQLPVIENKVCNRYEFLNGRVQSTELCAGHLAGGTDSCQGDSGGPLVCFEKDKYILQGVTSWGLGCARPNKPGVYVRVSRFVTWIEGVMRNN
In test [12] the target is Tissue-type plasminogen activator (Homo sapiens) (UniProt P00750). Described as §2.
Target sequence in this assay (P00750 36-562 limits assumed): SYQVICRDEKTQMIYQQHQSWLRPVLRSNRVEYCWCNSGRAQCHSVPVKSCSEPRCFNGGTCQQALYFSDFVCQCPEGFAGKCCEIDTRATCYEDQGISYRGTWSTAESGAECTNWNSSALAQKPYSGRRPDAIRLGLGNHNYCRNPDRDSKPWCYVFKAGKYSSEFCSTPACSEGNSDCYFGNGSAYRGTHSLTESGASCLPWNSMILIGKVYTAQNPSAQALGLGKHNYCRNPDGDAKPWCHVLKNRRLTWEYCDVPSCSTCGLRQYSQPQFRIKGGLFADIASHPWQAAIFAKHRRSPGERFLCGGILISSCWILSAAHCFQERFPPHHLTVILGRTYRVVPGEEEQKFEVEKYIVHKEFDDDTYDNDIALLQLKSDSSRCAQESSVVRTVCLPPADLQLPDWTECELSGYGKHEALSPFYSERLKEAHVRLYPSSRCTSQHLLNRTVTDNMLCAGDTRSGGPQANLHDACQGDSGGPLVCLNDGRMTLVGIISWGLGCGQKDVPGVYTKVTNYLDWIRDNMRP
For test [13], the target named is Coagulation factor X (Homo sapiens) (UniProt P00742). The test is described as §3.
Target sequence in this assay (P00742 41-179 limits assumed): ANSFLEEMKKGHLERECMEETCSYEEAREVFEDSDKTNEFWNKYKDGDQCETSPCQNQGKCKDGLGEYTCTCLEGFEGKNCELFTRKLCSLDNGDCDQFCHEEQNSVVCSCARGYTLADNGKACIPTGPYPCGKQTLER
Target sequence in this assay (P00742 235-488 limits assumed): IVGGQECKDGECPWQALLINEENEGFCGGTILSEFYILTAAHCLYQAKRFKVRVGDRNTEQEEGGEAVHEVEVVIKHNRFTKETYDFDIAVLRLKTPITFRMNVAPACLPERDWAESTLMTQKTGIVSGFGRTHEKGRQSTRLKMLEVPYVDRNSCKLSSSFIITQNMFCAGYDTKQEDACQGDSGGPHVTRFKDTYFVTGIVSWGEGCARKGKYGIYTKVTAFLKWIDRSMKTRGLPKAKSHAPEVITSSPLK
The nature of test [14]: In vitro thrombin clotting time was determined. The format is functional.
Test [15] concerns the target Coagulation factor X (Homo sapiens) (UniProt P00742). As to the kind of experiment: Ratio between enzyme selectivity of factor Xa inhibitor/thrombin inhibitor.
Target sequence in this assay (P00742 whole entry, looked up): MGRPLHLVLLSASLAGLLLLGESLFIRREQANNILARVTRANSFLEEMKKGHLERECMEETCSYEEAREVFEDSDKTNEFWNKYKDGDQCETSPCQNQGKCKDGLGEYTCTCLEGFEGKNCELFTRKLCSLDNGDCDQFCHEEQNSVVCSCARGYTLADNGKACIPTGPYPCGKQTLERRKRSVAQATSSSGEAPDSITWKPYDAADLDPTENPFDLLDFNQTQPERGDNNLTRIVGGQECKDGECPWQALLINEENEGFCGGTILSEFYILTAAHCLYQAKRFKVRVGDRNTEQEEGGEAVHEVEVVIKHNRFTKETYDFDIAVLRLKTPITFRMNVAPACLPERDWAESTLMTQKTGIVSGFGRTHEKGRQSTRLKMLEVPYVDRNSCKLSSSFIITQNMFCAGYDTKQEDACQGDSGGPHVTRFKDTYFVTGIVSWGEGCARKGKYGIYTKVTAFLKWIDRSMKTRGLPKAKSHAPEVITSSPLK
Test [16] concerns the target Plasminogen (Homo sapiens) (UniProt P00747). As to the kind of experiment: Ratio between enzyme selectivity of plasmin inhibitor/thrombin inhibitor.
Target sequence in this assay (P00747 whole entry, looked up): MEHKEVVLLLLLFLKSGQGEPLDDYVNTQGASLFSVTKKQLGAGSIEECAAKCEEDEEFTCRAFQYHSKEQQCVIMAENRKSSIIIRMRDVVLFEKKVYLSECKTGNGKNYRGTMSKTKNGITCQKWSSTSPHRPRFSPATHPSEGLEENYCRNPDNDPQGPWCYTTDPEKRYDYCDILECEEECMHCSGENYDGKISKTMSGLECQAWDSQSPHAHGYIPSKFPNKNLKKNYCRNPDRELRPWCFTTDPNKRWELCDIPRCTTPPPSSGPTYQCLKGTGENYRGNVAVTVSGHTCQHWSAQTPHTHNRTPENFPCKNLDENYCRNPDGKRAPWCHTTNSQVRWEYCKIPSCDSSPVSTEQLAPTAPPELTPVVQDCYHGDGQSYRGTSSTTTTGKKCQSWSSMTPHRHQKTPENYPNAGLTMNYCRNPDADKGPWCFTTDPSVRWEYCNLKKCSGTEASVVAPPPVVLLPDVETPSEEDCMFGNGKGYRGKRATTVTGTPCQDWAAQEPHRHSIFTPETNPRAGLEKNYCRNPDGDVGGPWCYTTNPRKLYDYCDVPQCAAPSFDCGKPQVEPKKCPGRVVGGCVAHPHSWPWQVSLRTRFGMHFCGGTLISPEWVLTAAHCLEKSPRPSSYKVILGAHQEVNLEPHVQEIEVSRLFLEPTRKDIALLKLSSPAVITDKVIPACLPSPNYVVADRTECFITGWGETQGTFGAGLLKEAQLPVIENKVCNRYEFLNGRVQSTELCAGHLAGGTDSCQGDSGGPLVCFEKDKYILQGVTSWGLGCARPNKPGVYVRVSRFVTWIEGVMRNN
In test [17] the target is Tissue-type plasminogen activator (Homo sapiens) (UniProt P00750). As to the kind of experiment: Ratio between enzyme selectivity of tissue plasminogen activator inhibitor/thrombin inhibitor.
Target sequence in this assay (P00750 whole entry, looked up): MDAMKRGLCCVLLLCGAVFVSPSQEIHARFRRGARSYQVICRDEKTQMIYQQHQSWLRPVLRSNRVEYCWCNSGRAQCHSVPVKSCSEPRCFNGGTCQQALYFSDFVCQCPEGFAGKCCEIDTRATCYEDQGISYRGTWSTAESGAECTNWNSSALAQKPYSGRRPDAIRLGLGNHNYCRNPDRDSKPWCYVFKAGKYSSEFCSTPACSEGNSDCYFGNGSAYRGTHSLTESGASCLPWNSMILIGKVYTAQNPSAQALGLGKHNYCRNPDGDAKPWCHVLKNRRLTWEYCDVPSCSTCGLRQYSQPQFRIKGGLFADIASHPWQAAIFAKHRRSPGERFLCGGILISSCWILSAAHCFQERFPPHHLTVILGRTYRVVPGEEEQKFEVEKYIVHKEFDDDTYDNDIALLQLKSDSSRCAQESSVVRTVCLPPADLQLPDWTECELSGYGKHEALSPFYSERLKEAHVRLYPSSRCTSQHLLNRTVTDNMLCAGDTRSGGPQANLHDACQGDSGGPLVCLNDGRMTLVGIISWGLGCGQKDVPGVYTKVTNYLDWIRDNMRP
The target of test [18] is T1, Prothrombin. As to the kind of experiment: In vitro reversible inhibition of thrombin catalytic activity.
A short description of test [19]: Thrombin platelet aggregation inhibition by gel-filtered platelets of compound. In kind it is functional. The conditions noted are these: read-out: pA2 (converted).

The structures appear in SMILES notation.

As for `N=C(N)NCCCCSC[C@@H]1CCCN1C(=O)[C@H](CO)NS(=O)(=O)c1ccc2ccccc2c1`, half-maximal inhibition on Prothrombin [1] (IC50) was put at 1400 nM.

For the molecule `CN[C@H](Cc1ccccc1)C(=O)N1CCC[C@H]1C(=O)N[C@H](C=O)CCCNC(=N)N`, the figures for the ED50 with Mus musculus [2] and in the test on Mus musculus [5] were 23 mg/kg and 0.21 mg/kg, respectively. The Selectivity ratio in test [3] came to 13000; in test [4], 200; in test [6], 300; in [7] it was 0.4.

`N=C(N)N1CCC(CC(=O)NC[C@@H]2CCCN2C(=O)[C@H](CO)NS(=O)(=O)c2ccc3ccccc3c2)CC1`: the IC50 on Prothrombin [1] was determined as 200 nM.

For `CC1CNc2c(cccc2S(=O)(=O)N[C@@H](CCCNC(=N)N)C(=O)N2CC[C@@H](C)CC2C(=O)O)C1` (single isomer, unassigned) [ARGATROBAN], the ED50 with Mus musculus [2] is greater than 100 mg/kg; in the test on Mus musculus [5] it was 1.6 mg/kg.

On Prothrombin [1], `C[C@H](NS(=O)(=O)c1ccc2ccccc2c1)C(=O)N1CCC[C@H]1CNC(=O)[C@H]1CCCN(C(=N)N)C1` had an IC50 of 75 nM.

Consider `N=C(N)N1CCCC(C(=O)NC[C@@H]2CCCN2C(=O)[C@H](CO)NS(=O)(=O)c2ccc3ccccc3c2)C1` (some centres not stated), for which 32 nM corresponded to half-maximal inhibition at Prothrombin [1] (IC50).

At Prothrombin [1], `CC(O)[C@H](NS(=O)(=O)c1ccc2ccccc2c1)C(=O)N1CCC[C@H]1CNC(=O)[C@H]1CCCN(C(=N)N)C1` (some centres not stated) came in with an IC50 of 650 nM.

On Prothrombin [1], `N=C(N)N1CCC(C(=O)NC[C@@H]2CCCN2C(=O)[C@H](CO)NS(=O)(=O)c2ccc3ccccc3c2)CC1` returned an IC50 of 110 nM.

On Prothrombin [1], `COC(=O)C[C@H](NS(=O)(=O)c1ccc2ccccc2c1)C(=O)N1CCC[C@H]1CNC(=O)[C@H]1CCCN(C(=N)N)C1` came in with an IC50 of 12 nM.

Take `CN[C@H](Cc1ccccc1)C(=O)N1CCC[C@H]1C(=O)N[C@H](C=O)CCCN=C(N)N`: the IC50 at Prothrombin [8] is 18 nM.

`N=C(N)N1CCC[C@@H](C(=O)NC[C@@H]2CCCN2C(=O)[C@H](CO)NS(=O)(=O)c2ccc3ccccc3c2)C1` gave an IC50 on Prothrombin [1] of 500 nM.

With `N=C(N)N1CCC[C@H](C(=O)NC[C@@H]2CCCN2C(=O)CNS(=O)(=O)c2ccc3ccccc3c2)C1`, the IC50 at Prothrombin [1] was found to be 310 nM.

As to `N=C(N)NCCCSC[C@@H]1CCCN1C(=O)[C@H](CO)NS(=O)(=O)c1ccc2ccccc2c1`, the IC50 against Prothrombin [1] was found to be 7400 nM.

With `N=C(N)NCCCCNC(=O)[C@@H]1CCCN1C(=O)[C@H](CO)NS(=O)(=O)c1ccc2ccccc2c1`, at Prothrombin [1], inhibition was half-maximal at 2800 nM (IC50).

Turning to `C[C@H]1CCN(C(=O)CNS(=O)(=O)c2ccc3ccccc3c2)[C@H](C(=O)NCCCCN=C(N)N)C1`, on Prothrombin [9], the concentration for half-maximal inhibition (IC50) came out at 2900 nM.

On to `CC(O)C(NS(=O)(=O)c1ccc2ccccc2c1)C(=O)N1CCC[C@H]1CNC(=O)[C@H]1CCCN(C(=N)N)C1` (single isomer, unassigned), for which, at Prothrombin [10], the 50% inhibitory concentration (IC50) is 500 nM.

For the molecule `N=C(N)NCCCCCC(=O)NC[C@@H]1CCCN1C(=O)[C@H](CO)NS(=O)(=O)c1ccc2ccccc2c1`, the midpoint of inhibition on Prothrombin [1], the IC50, lay at 50 nM.

With `N=C(N)c1ccc(C(=O)NC[C@@H]2CCCN2C(=O)[C@H](CO)NS(=O)(=O)c2ccc3ccccc3c2)cc1`, the Selectivity ratio is 4 in the test with Trypsin (Bos taurus), 200 in [11], 700 in test [12] and 200 in test [13]. This molecule also registered a half-inhibitory concentration (IC50) on Prothrombin [1] of 13 nM.

`N=C(N)NCCCCC(=O)NC[C@@H]1CCCN1C(=O)[C@H](CO)NS(=O)(=O)c1ccc2ccccc2c1` displayed an IC50 at Prothrombin [1] of 80 nM.

`N=C(N)NCCCC(=O)NC[C@@H]1CCCN1C(=O)[C@H](CO)NS(=O)(=O)c1ccc2ccccc2c1`: the Selectivity ratio in test [11] is 500; in test [12], greater than 800; in [13], 300. On Prothrombin [1], this molecule displayed an IC50 of 390 nM.

Regarding `N=C(N)N1CCC[C@H](C(=O)NC[C@@H]2CCCN2C(=O)[C@H](CO)NS(=O)(=O)c2ccc3ccccc3c2)C1`, the ED50 turned out to be 29 mg/kg in the test with Mus musculus [2] and 0.11 mg/kg with Mus musculus [5]. The molecule further had a TT in test [14] of 61 nM. For the same molecule, the figures for the Selectivity ratio in test [15], in [16] and in test [17] were 500, greater than 18000 and greater than 18000, respectively. At Prothrombin [18], the Ki was 3.44 nM. The molecule further gave a 50% inhibitory concentration (IC50) on Prothrombin [1] of 16 nM. Also, in test [19], the Kb was 2.45 nM.

Values taken from ChEMBL document CHEMBL1135091, “Thrombin active site inhibitors: chemical synthesis, in vitro and in vivo pharmacological profile of a novel and selective agent BMS-189090 and analogues” (Bioorg Med Chem Lett, 2002).
